In US20080220449A1, “Biomarkers and assays for Alzheimer's disease” (OLIGOMERIX, INC., priority 2007, published 2008):
“Also recorded” adds a separate entry of the source.

What was measured:
soluble tau oligomer = test: Modified ELISA (mAb HT7 capture, biotinylated mAb HT7 reporter) for curcumin effect on tau-oligomer levels in CSF; assay type: biochemical, human
Experimental: FIG. 6 is a schematic diagram illustrating an exemplary method and assay that utilizes standard and modified ELISA to detect tau-monomer, tau pT217, soluble tau oligomer, and tau-amyloid-beta 1-42 complex. Formation of tau oligomers was analyzed using two different ELISA methods to provide verified data. The “modified” ELISA uses the same monoclonal antibody for capture and detection. Insoluble aggregates are removed in the ELISA procedure during washing steps. Only soluble aggregates of tau, not monomers, are detected with this ELISA because the detection and reporter antibody recognizes an epitope which is present only once within tau. […]
Modified ELISA to determine tau-oligomer levels in CSF: Tau oligomer level was determined using modified sandwich ELISA where mAb HT7 against tau was used for capture and biotinylated mAb HT7 as the reporter. […]
Sample preparation: A 5 mM stock solution of curcumin was prepared in 100% ethanol. […] The incubated samples were diluted to 500 μL in buffer and analyzed for tau-oligomers by modified ELISA as described in FIG. 6. […]
(§1) Data analysis for Example 11 (FIG. 13) and Example 12 (FIG. 14) was measured as a percent decrease in tau-oligomers, upon incubation with curcumin. […]
(§2) FU=(Average fluorescence of triplicate wells for each sample-average fluorescence of the antibody blank wells). […]

[1] = target: T1, tau oligomers containing tau without c-terminal truncation (Homo sapiens, UniProt P10636); test: ELISA with mAb T46 capture and pAb A11 reporter for curcumin effect on tau-oligomer levels in CSF; assay type: biochemical; settings: same CSF sample from a patient having severe AD; sample preparation as in Example 11
T1 construct: only tau oligomers containing tau without c-terminal truncation would be detected; from tissue; host or cells: cerebrospinal fluid of a severe AD patient (post mortem, New York Brain Bank)
T1 sequence (P10636 1-441 isoform P10636-8): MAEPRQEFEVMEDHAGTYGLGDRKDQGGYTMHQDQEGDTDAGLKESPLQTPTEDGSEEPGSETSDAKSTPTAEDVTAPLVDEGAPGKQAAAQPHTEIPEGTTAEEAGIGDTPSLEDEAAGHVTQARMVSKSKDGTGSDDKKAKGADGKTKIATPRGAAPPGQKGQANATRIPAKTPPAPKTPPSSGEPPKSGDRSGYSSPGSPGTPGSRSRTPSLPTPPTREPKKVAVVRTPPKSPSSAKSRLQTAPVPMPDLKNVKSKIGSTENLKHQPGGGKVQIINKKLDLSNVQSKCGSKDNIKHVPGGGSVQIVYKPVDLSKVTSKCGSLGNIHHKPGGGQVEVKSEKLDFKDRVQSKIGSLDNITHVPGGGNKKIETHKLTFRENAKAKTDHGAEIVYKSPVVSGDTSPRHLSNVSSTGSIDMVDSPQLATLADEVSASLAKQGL
Experimental: Tau oligomer levels based on oligomer conformation was determined using a standard sandwich ELISA where mAb HT7 against tau was used for capture, as mentioned in FIG. 2 (Example 1). After incubation with CSF samples (see FIG. 2 legend) the plates were washed and 100 uL rabbit pAb A11, specific for protein oligomer conformation, was diluted 1000-fold and added to each well. The plate was incubated for one hour at 37° C. and washed. Biotinylated goat anti-rabbit antibody was diluted 10,000-fold in PBST and 50 μL was added to each well. Plates were incubated for 30 min. at 37° C. Detection was done using HRP-neutravidin and QuantaBlu fluorogenic substrate as described for FIG. 2 (Example 1). The results are shown in FIG. 8 (4 severe AD, 5 AD and 3 non-AD CSF samples were tested). Here the assay is specific for tau in association with oligomer conformation and can detect soluble tau oligomers. The combination of a monoclonal antibody against tau with an antibody specific for oligomer conformation is novel. […]
Tau oligomer levels in CSF were determined using antibodies specific for oligomer conformation and tau with intact c-terminus. […]
as §1, §2

COc1cc(/C=C/C(=O)CC(=O)/C=C/c2ccc(O)c(OC)c2)ccc1O [curcumin]
percent decrease in tau-oligomers upon incubation with curcumin (FIG. 13) (soluble tau oligomer; CSF from three different severe AD patients, 5 uL of 20 uM curcumin in total volume of 100 uL, one hour at 37° C.): disruption of soluble tau oligomer; also recorded: reduction of tau oligomer levels
percent decrease in tau-oligomers upon incubation with curcumin (FIG. 14, modified ELISA format) (soluble tau oligomer; one CSF sample from a patient having severe AD, sample preparation as in Example 11): reduction of tau oligomer levels
percent decrease in tau-oligomers upon incubation with curcumin (FIG. 14, mAb T46 / pAb A11 format) [1]: reduction of tau oligomer levels
